In ChEMBL document CHEMBL1944551, “An integrated computational workflow for efficient and quantitative modeling of renin inhibitors” (Bioorg Med Chem, 2012) one finds logP data, which are given here for 26 compounds.

SMILES strings stand for the structures.

This data set in a line: physchem.

Turning to `Cc1cc(Cl)c(OCCOc2ccc(N3C(=O)CNC[C@@H]3C(=O)N(Cc3cc(CNC4CC4)ccc3Cl)C3CC3)cc2)c(Cl)c1`, where the note is “octanol/buffer”, the logP (as a rule, the decadic logarithm of the partition coefficient of the neutral form, usually between octanol and water) turned out to be 6.3. Consider `CCC(=O)NCc1ccc(Cl)c(CN(C(=O)[C@H]2CNCC(=O)N2c2ccc(OCCCOCc3ccccc3OC)cc2)C2CC2)c1`, for which the logP (octanol/buffer) came to 5. On to `COCCCc1ccc(Cl)c(CN(C(=O)[C@H]2CNCC(=O)N2c2ccc(OCCCOCc3ccccc3)cc2)C2CC2)c1`, for which the logP (octanol/buffer) was found to be 5.76. Same read-out and setting: in the case of `O=C([C@H]1CNCC(=O)N1c1ccc(CCCOc2cccc(Cl)c2)cc1)N(Cc1ccccc1Cl)C1CC1` it was 5.9; in that of `CNC(=O)Cc1ccc(Cl)c(CN(C(=O)[C@H]2CNCC(=O)N2c2ccc(OCCOc3c(Cl)cc(C)cc3Cl)cc2)C2CC2)c1`, 5.26; in that of `Cc1cc(Cl)c(OCCOc2ccc(N3C(=O)CNC[C@@H]3C(=O)N(Cc3cc(CNC(=O)C4CC4)ccc3Cl)C3CC3)cc2)c(Cl)c1`, 5.65. On the same count and under the same terms, in the case of `CNC(=O)OCc1ccc(Cl)c(CN(C(=O)[C@H]2CNCC(=O)N2c2ccc(OCCOc3c(Cl)cc(C)cc3Cl)nc2)C2CC2)c1` it was 4.75; in that of `COc1ccccc1COCCCOc1ccc(N2C(=O)CNC[C@@H]2C(=O)N(C)CCc2ccccc2)cc1`, 3.9.

Where the note is “octanol/buffer”, `COC(=O)NCc1ccc(Cl)c(CN(C(=O)[C@H]2CNCC(=O)N2c2ccc(COC(=O)c3ccccc3)cc2)C2CC2)c1` displayed a logP of 4.48.

As for `O=C(Cc1ccc(Cl)c(CN(C(=O)[C@H]2CNCC(=O)N2c2ccc(COC(=O)c3ccccc3)cc2)C2CC2)c1)NC1CC1`, the log partition coefficient (logP) (octanol/buffer) came out at 4.81. For the compound `CCNCCc1ccc(Cl)c(CN(C(=O)[C@H]2CNCC(=O)N2c2ccc(OCCOc3c(Cl)cc(C)cc3Cl)cc2)C2CC2)c1`, where the note is “octanol/buffer”, the logP came to 6.08. Consider `CNC(=O)OCc1ccc(Cl)c(CN(C(=O)[C@H]2CNCC(=O)N2c2ccc(CCCOc3cccc(Cl)c3)cc2)C2CC2)c1`, for which the logP (octanol/buffer) is 5.65. Where the note is “octanol/buffer”, `COCCCc1cc(CN(C(=O)[C@H]2CNCC(=O)N2c2ccc(CCCOc3c(F)ccc(F)c3F)cc2)C2CC2)c(Cl)c[n+]1[O-]` registered a logP of 5.33. Same read-out and setting: to `O=C([C@H]1CNCC(=O)N1c1ccc(CCCOc2c(F)ccc(F)c2F)cc1)N(Cc1cc(CNCCF)ccc1Cl)C1CC1` belongs 5.66; to `Cc1cc(Cl)c(OCCOc2ccc(N3C(=O)CNC[C@@H]3C(=O)N(Cc3cccc(Cl)c3Cl)C3CC3)cc2)c(Cl)c1`, 6.42; to `COC(=O)NCc1ccc(Cl)c(CN(C(=O)[C@H]2CNCC(=O)N2c2cnc(OCCCOCc3ccccc3OC)nc2)C2CC2)c1`, 2.8. The same measure, in the same setting: to `CCNCCc1ccc(Cl)c(CN(C(=O)[C@H]2CNCC(=O)N2c2ccc(OCCCOCc3ccccc3OC)cc2)C2CC2)c1` belongs 5.31. Same read-out and setting: in the case of `Cc1cc(Cl)c(OCCOc2ccc(N3C(=O)CNC[C@@H]3C(=O)N(Cc3cc(CCNC(=O)CC(F)(F)F)ccc3Cl)C3CC3)cc2)c(Cl)c1` it was 6.11. In turn, `COc1ccccc1COCCCOc1ncc(N2C(=O)CNC[C@@H]2C(=O)N(C)Cc2ccccc2)cn1` displayed a lipophilicity (logP) (octanol/buffer) of 1.8. Same read-out and setting: to `Cc1cc(Cl)c(OCCOc2ccc(N3C(=O)CNC[C@@H]3C(=O)N(Cc3cc(CC(=O)NC4CC4)ccc3Cl)C3CC3)cc2)c(Cl)c1` belongs 5.91. Turning to `COc1ccccc1COCCCOc1ncc(N2C(=O)CNC[C@@H]2C(=O)NCc2ccccc2Cl)cn1`, the logP (octanol/water) worked out at 2.2.

In the case of `Cc1cc(Cl)c(OCCOc2ccc(N3C(=O)CNC[C@@H]3C(=O)N(Cc3cc(CNCC(F)F)ccc3Cl)C3CC3)cn2)c(Cl)c1`, where the note is “octanol/buffer”, the logP turned out to be 5.24. Under “octanol/buffer”, `COC(=O)NCc1ccc(Cl)c(CN(C(=O)[C@H]2CNCC(=O)N2c2ccc(CCCOc3cccc(Cl)c3)cc2)C2CC2)c1` registered a log partition coefficient (logP) of 5.65. The same measure, in the same setting: in the case of `COc1ccccc1COCCCOc1ncc(N2C(=O)CNC[C@@H]2C(=O)N(Cc2cc(CCNC(C)=O)ccc2Cl)C2CC2)cn1` it was 2.6; in that of `O=C(CC(F)(F)F)NCc1ccc(Cl)c(CN(C(=O)[C@H]2CNCC(=O)N2c2ccc(OCCCOCc3ccccc3)cc2)C2CC2)c1`, 5.29; in that of `Cc1cc(Cl)c(OCCOc2ccc(N3C(=O)CNC[C@@H]3C(=O)N(Cc3ccc(Cl)cc3)C3CC3)cc2)c(Cl)c1`, 5.83.
